Measurements from US9944700B2, “Notch2 binding molecules for treating respiratory diseases” (NOVARTIS AG, priority 2013, dated 2018).

B1: IL-29: secreted, recombinant human protein profiled in the bronchosphere assay (protein, UniProt Q8IU54 20-200, looked up)
Interferon lambda-1: GPVPTSKPTTTGKGCHIGRFKSLSPQELASFKKARDALEESLKLKNWSCSSPVFPGNWDLRLLQVRERPVALEAELALTLKVLEAAAGPALEDVLDQPLHTLHHILSQLQACIQPQPTAGPRPRGRLHHWLHRLQEAPKKESAGCLEASVTFNLFRLLTRDLKYVADGNLCLRTSTHPEST

Legend:
[1] = tested on: bronchospheres (human bronchial epithelial cells); test: Bronchosphere assay of secreted recombinant human proteins, qPCR of cell type markers and immunostaining; assay type: cell-based; details: for change in expression of at least one cell-type marker, initial screen: 55 proteins tested at 3.3, 10 and 30 ng/mL; for expression of both of the ciliated cell markers: markers FOXJ1, DNAI2; for expression of at least two of the goblet cell markers: markers MUC5AC, MUC5B, FOXA3; for change in expression of at least one of the cell-type markers, on validation: expanded concentration range
Description: (§1) Human bronchial epithelial (HBE) cells and culture media were obtained from Lonza. Air-liquid interface cultures using passage 2 (P2) cells were performed as previously described (Danahay, H. et al., American journal of physiology. Lung cellular and molecular physiology 282, L226-236 (2002)). For three-dimensional culturing of HBE cells, P1 cells were trypsinized and resuspended (30,000 cells/ml) in HBE differentiation media containing 5% growth factor-reduced Matrigel (BD Biosciences). 20 μl of suspension was plated in each well of a 384-well plate (Greiner) pre-coated with 10 μl of a 25% solution of Matrigel (BD Biosciences) in HBE differentiation media. Wells were fed or treated at day 2 and day 8 of culture by adding 30 μl of differentiation media containing the appropriate treatment. Three-dimensional cultures were analyzed at the time points indicated.
Immunofluorescence of HBEC bronchospheres was performed as described previously for MCF10A cysts (Debnath, J. et al., Methods 30, 256-268 (2003) with the following modifications. After incubation with fluorescence-conjugated secondary antibodies, DNA was stained with a 1:1 mix of PBS and ProLong gold antifade containing DAPI. Confocal microscopy was performed at room temperature on a microscope (Zeiss LSM510 Meta) using an EC Plan-Neofluar 10×/0.30 dry objective (Zeiss), an EC Plan-Neofluor 20×/0.5 dry objective (Zeiss), a C-Apochromat 40×/1.2 W corr (Zeiss), or a C-Apochromat 63×/1.2 W Corr objective (Zeiss). Images were collected with Zen confocal software (Zeiss). Scale bars were added, and images were processed using Zen (Zeiss) and Photoshop (Adobe). Air-liquid interface (ALI) cultures were processed for immunofluorescence analysis after 14 days of culture at ALI by rinsing the apical surface of each filter with PBS, and then fixing in 4% paraformaldehyde for 4 hours. Filters were washed with IF buffer (130 mM NaCl, 7 mM Na2HPO4, 3.5 mM NaH2PO4, 7.7 mM NaN3, 0.1% bovine serum albumin, 0.2% Triton X-100, 0.05% Tween-20), blocked with IF wash containing 10% goat serum, and stained with primary antibody in IF wash containing 10% goat serum overnight at 4° C. Secondary antibodies were used at a 1:200 dilution in IF buffer containing 10% goat serum. To quantify the total staining area of ALI cultures, 10×13 images were collected with a plan Neofluar 10×0.3 NA Ph1 objective (EC; Carl Zeiss, Inc.) on a microscope (Axiovert 200; Carl Zeiss, Inc.) equipped with a motorized stage and a camera (Orca-ER-1394; Hamamatsu Photonics) controlled by Axiovision software (Carl Zeiss, Inc.) and used to generate a single composite image using the MOSAIX function in Zeiss Axiovision. Quantification of the total staining area was performed with ImageJ. Two to three regions of each ALI culture were punched out with a 4 mm biopsy punch (Miltex, Inc.) and mounted in ProLong gold antifade containing DAPI for imaging by confocal microscopy on a microscope (Axiovert 200; Carl Zeiss, Inc.) equipped with a motorized stage, a Yokogawa CSU-X1 spinning disc head, and an EMCCD camera (Evolve 512, Photometrics), with a Plan-Apochromat 100×/1.4 Oil DIC objective (Zeiss). Cells positive for MUC5AC, MUC5B, or cilia (acetylated α-Tubulin) staining were counted manually. For time-lapse video microscopy, HBECs were imaged at the indicated times during bronchosphere development at 37° C. with a plan Neofluar 10×0.3 NA Ph1 objective (EC; Carl Zeiss, Inc.). Images were taken every 5 min for the indicated time period. Annotations (time stamp and scale bar) were added and videos were assembled using Axiovision software.
RNA was isolated from 3D bronchosphere cultures with Trizol (Invitrogen), using manufacturer's specifications. To isolate RNA from mouse tissue, approximately 20 mg of tissue was placed in a 1.5 ml eppendorf tube with 1 ml of Buffer RLT Plus (Qiagen). A 5 mm stainless steel bead (Qiagen) was added to the tube, and the tissue was sheared using a Tissue Lyser II (Qiagen).

airway basal cells = test: Air-liquid interface (ALI) cultures of airway basal cells treated with IL-17A; assay type: cell-based, human; details: IL-17A from day 7 (day 0 at ALI), analysed day 21; FIGS. 3d, 3e
Description: as §1, with “Wells were fed or treated at day 2 and day 8 of culture by adding 30 μl of differentiation media containing the appropriate treatment.” left out
Immunofluorescence of HBEC bronchospheres was performed as described previously for MCF10A cysts (Debnath, J. et al., Methods 30, 256-268 (2003) with the following modifications. After incubation with fluorescence-conjugated secondary antibodies, DNA was stained with a 1:1 mix of PBS and ProLong gold antifade containing DAPI. Confocal microscopy was performed at room temperature on a microscope (Zeiss LSM510 Meta) using an EC Plan-Neofluar 10×/0.30 dry objective (Zeiss), an EC Plan-Neofluor 20×/0.5 dry objective (Zeiss), a C-Apochromat 40×/1.2 W corr (Zeiss), or a C-Apochromat 63×/1.2 W Corr objective (Zeiss). […]

Molecule	change in expression of at least one cell-type marker, initial screen [1]	basal cell markers ([1]; IL-17A, qPCR, FIG. 3c)	levels of goblet cell markers (MUC5AC, MUC5B and FOXA3) ([1]; broader range of IL-17A concentrations, qPCR, FIG. 3a)	expression of markers of ciliated cells (FOXJ1 and DNAI2) ([1]; broader range of IL-17A concentrations, qPCR, FIG. 3b)	expression of both of the ciliated cell markers [1]	expression of at least two of the goblet cell markers [1]	change in expression of at least one of the cell-type markers, on validation [1]	goblet cell population (MUC5AC and MUC5B markers) (airway basal cells)	number of ciliated cells (α-tubulin marker) (airway basal cells)
IL-17A: secreted, recombinant human protein; cytokine secreted by Th17 cells	concentration-dependent change	No significant changes	increased levels	inhibiting	attenuated	enhanced	robust change	profound expansion	dramatic reduction
B1	concentration-dependent change				attenuated	enhanced	robust change		
